Reference: patent publication US9133204B2, “5-membered heterocyclic amides and related compounds” (H. Lundbeck A/S, priority 2007, dated 2015)

What follows are molecules tested against T1, P2X7 receptor (Homo sapiens, UniProt Q99572) (assay: High throughput P2X7 calcium mobilization assay (Example 4A)). Conditions: SH-SY5Y cells; 50% decrease in fluorescence response of cells exposed to 80 μM BzATP; Table I.
T1 construct: host or cells: SH-SY5Y
T1 sequence (Q99572 1-595): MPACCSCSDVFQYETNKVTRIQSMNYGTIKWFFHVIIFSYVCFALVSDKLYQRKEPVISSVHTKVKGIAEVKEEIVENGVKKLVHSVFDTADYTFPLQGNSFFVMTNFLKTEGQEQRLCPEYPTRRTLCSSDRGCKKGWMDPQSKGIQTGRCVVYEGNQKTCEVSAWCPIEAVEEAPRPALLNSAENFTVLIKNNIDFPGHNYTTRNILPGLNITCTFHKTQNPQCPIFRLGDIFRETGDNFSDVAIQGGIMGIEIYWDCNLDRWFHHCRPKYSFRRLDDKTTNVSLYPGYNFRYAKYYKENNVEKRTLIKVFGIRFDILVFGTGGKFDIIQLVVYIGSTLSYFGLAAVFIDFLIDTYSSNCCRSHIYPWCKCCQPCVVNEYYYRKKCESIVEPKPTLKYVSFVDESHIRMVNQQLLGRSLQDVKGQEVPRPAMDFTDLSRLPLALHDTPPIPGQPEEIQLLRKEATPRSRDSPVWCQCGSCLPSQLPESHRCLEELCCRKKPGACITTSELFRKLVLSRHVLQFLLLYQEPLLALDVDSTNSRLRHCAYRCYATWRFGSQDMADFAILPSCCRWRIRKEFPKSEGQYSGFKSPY
Type: cell-based
How it was run: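 Calcium mobilization read by FLIPR as peak fluorescence over 2 min after adding BzATP to a final 80 μM (about EC50). Beforehand, Fluo-4 AM-loaded SH-SY5Y cells sat 1 h at room temperature with compound at 1–2500 nM in pH 7.4 sucrose/HEPES buffer; signal minus no-agonist wells.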

IC50, ≤ 2000 nM:
CC(C)CC(CNC(=O)c1cn(-c2ncccn2)nc1C(F)(F)F)c1cccnc1 (stereo not drawn) [Compound 203, N-(4-methyl-2-pyridin-3-ylpentyl)-1-pyrimidin-2-yl-3-(trifluoromethyl)-1H-pyrazole-4-carboxamide]
O=C(NCC1(c2ccc(Cl)cc2)CCC1)c1cn(-c2ncccn2)nc1C(F)(F)F [Compound 204, N-{[1-(4-chlorophenyl)cyclobutyl]methyl}-1-pyrimidin-2-yl-3-(trifluoromethyl)-1H-pyrazole-4-carboxamide]
O=C(NCC(O)C12CC3CC(CC(C3)C1)C2)c1cn(-c2ncccn2)nc1C(F)(F)F (stereo not drawn) [Compound 205, N-(2-adamantan-1-yl-2-hydroxyethyl)-1-pyrimidin-2-yl-3-(trifluoromethyl)-1H-pyrazole-4-carboxamide]
CC(C)CCNC(=O)c1cn(-c2ncccn2)nc1C(F)(F)F [Compound 206, N-(3-methylbutyl)-1-pyrimidin-2-yl-3-(trifluoromethyl)-1H-pyrazole-4-carboxamide]
CCC(CNC(=O)c1cn(-c2ncccn2)nc1C(F)(F)F)c1ccccc1 (stereo not drawn) [Compound 207, N-(2-phenylbutyl)-1-pyrimidin-2-yl-3-(trifluoromethyl)-1H-pyrazole-4-carboxamide]
CCCCCCCC(CNC(=O)c1cn(-c2ncccn2)nc1C(F)(F)F)c1ccccc1 (stereo not drawn) [Compound 208, N-(2-phenylnonyl)-1-pyrimidin-2-yl-3-(trifluoromethyl)-1H-pyrazole-4-carboxamide]
CC(C)CC(CNC(=O)c1cn(-c2ncccn2)nc1C(F)(F)F)c1ccccc1 (stereo not drawn) [Compound 209, N-(4-methyl-2-phenylpentyl)-1-pyrimidin-2-yl-3-(trifluoromethyl)-1H-pyrazole-4-carboxamide]
O=C(NCC(CC1CCCC1)c1ccccc1)c1cn(-c2ncccn2)nc1C(F)(F)F (stereo not drawn) [Compound 210, N-(3-cyclopentyl-2-phenylpropyl)-1-pyrimidin-2-yl-3-(trifluoromethyl)-1H-pyrazole-4-carboxamide]
O=C(NCC(c1ccccc1)C1CCCCC1)c1cn(-c2ncccn2)nc1C(F)(F)F (stereo not drawn) [Compound 211, N-(2-cyclohexyl-2-phenylethyl)-1-pyrimidin-2-yl-3-(trifluoromethyl)-1H-pyrazole-4-carboxamide]
CCCCCCC(CNC(=O)c1cn(-c2ncccn2)nc1C(F)(F)F)c1ccccc1 (stereo not drawn) [Compound 212, N-(2-phenyloctyl)-1-pyrimidin-2-yl-3-(trifluoromethyl)-1H-pyrazole-4-carboxamide]
O=C(NCC(CC1CCCCC1)c1ccccc1)c1cn(-c2ncccn2)nc1C(F)(F)F (stereo not drawn) [Compound 213, N-(3-cyclohexyl-2-phenypropyl)-1-pyrimidin-2-yl-3-(trifluoromethyl)-1H-pyrazole-4-carboxamide]
O=C(NCC(CCC1CCCCC1)c1ccccc1)c1cn(-c2ncccn2)nc1C(F)(F)F (stereo not drawn) [Compound 214, N-(4-cyclohexyl-2-phenylbutyl)-1-pyrimidin-2-yl-3-(trifluoromethyl)-1H-pyrazole-4-carboxamide]
CC(CCNC(=O)c1cn(-c2ncccn2)nc1C(F)(F)F)c1ccccc1 (stereo not drawn) [Compound 215, N-(3-phenylbutyl)-1-pyrimidin-2-yl-3-(trifluoromethyl)-1H-pyrazole-4-carboxamide]
CC1CC(NC(=O)c2cn(-c3ncccn3)nc2C(F)(F)F)CC(C)(C)C1 (stereo not drawn) [Compound 216, 1-pyrimidin-2-yl-3-(trifluoromethyl)-N-(3,3,5-trimethylcyclohexyl)-1H-pyrazole-4-carboxamide]
O=C(NC1C2CC3CC(C2)CC1C3)c1cn(-c2ncccn2)nc1C(F)(F)F (stereo not drawn) [Compound 217, N-adamantan-2-yl-1-pyrimidin-2-yl-3-(trifluoromethyl)-1H-pyrazole-4-carboxamide]
